Laboratory results reported in ChEMBL document CHEMBL2429822, “Imaging probes of tau pathology” (ACS Med Chem Lett, 2013).
Calls of active or inactive are those of the source. No cut-off for these calls is given here.

Assays:
[1] = biological target: Amyloid-beta precursor protein (Homo sapiens) (UniProt P05067); test: Binding affinity to human amyloid-beta plaques at 100 uM by fluorescence microscopy
[2] = biological target: Microtubule-associated protein tau (Homo sapiens) (UniProt P10636); test: Binding affinity to human tau associated NFTs at 100 uM by fluorescence microscopy
Microtubule-associated protein tau (Homo sapiens), sequence (P10636 whole entry): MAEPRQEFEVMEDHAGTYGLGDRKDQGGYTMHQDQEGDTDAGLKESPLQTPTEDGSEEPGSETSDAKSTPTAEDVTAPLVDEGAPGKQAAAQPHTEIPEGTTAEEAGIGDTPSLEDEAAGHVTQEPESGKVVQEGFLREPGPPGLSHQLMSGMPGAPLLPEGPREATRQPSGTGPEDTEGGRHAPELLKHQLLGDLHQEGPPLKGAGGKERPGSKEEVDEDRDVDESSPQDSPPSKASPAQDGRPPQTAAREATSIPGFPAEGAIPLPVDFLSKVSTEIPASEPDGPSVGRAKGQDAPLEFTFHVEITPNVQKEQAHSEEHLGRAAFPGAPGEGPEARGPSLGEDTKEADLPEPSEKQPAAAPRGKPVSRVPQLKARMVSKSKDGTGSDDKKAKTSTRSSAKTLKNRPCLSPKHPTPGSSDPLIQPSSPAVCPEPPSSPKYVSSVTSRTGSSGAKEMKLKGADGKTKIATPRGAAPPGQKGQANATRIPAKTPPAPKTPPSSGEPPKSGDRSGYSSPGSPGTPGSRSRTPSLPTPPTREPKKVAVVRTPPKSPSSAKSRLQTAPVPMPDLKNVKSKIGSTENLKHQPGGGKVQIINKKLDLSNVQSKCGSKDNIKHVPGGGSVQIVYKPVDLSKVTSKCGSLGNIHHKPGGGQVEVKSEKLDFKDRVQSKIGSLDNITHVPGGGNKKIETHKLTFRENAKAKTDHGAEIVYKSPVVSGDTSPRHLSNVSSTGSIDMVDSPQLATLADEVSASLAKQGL

[3] = biological target: Amyloid-beta precursor protein (Homo sapiens) (UniProt P05067); test: Binding affinity to human amyloid-beta plaques at 10 uM by fluorescence microscopy
[4] = biological target: Microtubule-associated protein tau (Homo sapiens) (UniProt P10636); test: Binding affinity to human tau associated NFTs at 1 uM by fluorescence microscopy
[5] = biological target: Microtubule-associated protein tau (Homo sapiens) (UniProt P10636); test: Binding affinity to human tau associated NFTs at 10 uM by fluorescence microscopy
Brain [6] = test: Ratio of clearance in Wistar rat brain at 50 ug after 2 mins to clearance in Wistar rat brain at 50 ug after 30 mins; format: ADME, tissue-based; conditions: in vivo
Brain [7] = test: Biodistribution in Wistar rat brain at 50 ug, iv after 30 mins by […] analysis; format: ADME, organism-based; conditions: in vivo, 0.5 h
Brain [8] = test: Biodistribution in Wistar rat brain at 50 ug, iv after 60 mins by […] analysis; format: ADME, organism-based; conditions: in vivo, 1 h
Brain [9] = test: Biodistribution in Wistar rat brain at 50 ug, iv after 10 mins by […] analysis; format: ADME, organism-based; conditions: in vivo
Brain [10] = test: Biodistribution in Wistar rat brain at 50 ug, iv after 2 mins by […] analysis; format: ADME, organism-based; conditions: in vivo
[11] = biological target: Amyloid-beta precursor protein (Homo sapiens) (UniProt P05067); test: Binding affinity to human amyloid-beta plaques at 1 uM by fluorescence microscopy
Brain [12] = test: Ratio of clearance in C57B1/6 mouse brain at 2 MBq after 2 mins to clearance in C57B1/6 mouse brain at 2 MBq after 30 mins; format: ADME, tissue-based; conditions: in vivo
Brain [13] = test: Biodistribution in C57B1/6 mouse brain at 2 MBq, iv after 60 mins by gamma-counting analysis; format: ADME, organism-based; conditions: in vivo, 1 h
Brain [14] = test: Biodistribution in C57B1/6 mouse brain at 2 MBq, iv after 30 mins by gamma-counting analysis; format: ADME, organism-based; conditions: in vivo, 0.5 h
Brain [15] = test: Biodistribution in C57B1/6 mouse brain at 2 MBq, iv after 10 mins by gamma-counting analysis; format: ADME, organism-based; conditions: in vivo
Brain [16] = test: Biodistribution in C57B1/6 mouse brain at 2 MBq, iv after 2 mins by gamma-counting analysis; format: ADME, organism-based; conditions: in vivo
[17] = tested as the 11C-labelled form

Amyloid-beta precursor protein (Homo sapiens), sequence (P05067 whole entry): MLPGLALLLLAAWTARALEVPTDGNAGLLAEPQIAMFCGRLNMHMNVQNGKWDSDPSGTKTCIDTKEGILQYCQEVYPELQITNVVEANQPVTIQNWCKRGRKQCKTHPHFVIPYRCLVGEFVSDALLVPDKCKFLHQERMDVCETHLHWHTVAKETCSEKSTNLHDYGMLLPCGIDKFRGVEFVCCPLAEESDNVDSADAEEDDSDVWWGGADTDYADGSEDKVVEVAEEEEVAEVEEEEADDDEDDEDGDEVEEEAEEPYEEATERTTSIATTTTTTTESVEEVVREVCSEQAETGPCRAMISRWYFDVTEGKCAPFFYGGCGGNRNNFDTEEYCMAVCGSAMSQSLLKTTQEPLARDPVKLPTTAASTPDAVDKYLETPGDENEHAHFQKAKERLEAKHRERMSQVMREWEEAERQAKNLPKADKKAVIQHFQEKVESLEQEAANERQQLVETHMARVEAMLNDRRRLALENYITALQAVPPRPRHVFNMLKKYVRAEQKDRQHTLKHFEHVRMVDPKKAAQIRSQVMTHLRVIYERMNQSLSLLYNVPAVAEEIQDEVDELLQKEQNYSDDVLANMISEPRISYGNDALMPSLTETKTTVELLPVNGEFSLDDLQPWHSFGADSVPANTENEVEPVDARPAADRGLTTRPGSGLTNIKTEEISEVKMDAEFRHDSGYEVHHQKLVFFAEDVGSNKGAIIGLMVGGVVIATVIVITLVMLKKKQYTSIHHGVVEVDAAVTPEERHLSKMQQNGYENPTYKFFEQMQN

| SMILES | Activity [1] | Activity [2] | Activity [3] | Activity [4] | Activity [5] | further results |
| --- | --- | --- | --- | --- | --- | --- |
| CC(C)NC(=O)c1nn(-c2ccc(OCC(O)CF)cc2)c(=O)c2c(N)scc12 (configuration not stated) | inactive | inactive |  |  |  |  |
| CC(C)NC(=O)c1nn(-c2ccc([N+](=O)[O-])cc2)c(=O)c2c(N)scc12 | Active | Active | inactive | inactive | Active |  |
| CC(C)NC(=O)c1nn(-c2ccc(OCCF)cc2)c(=O)c2c(N)scc12 | Active | Active | Active | Active | Active | Ratio (Brain [6]): 13.3; Drug uptake (Brain [7]): 0.021%; Drug uptake (Brain [8]): 0.011%; Drug uptake (Brain [9]): 0.081%; Drug uptake (Brain [10]): 0.28%; Activity [11]: inactive |
| CNc1ccc(-c2nc3ccc(O)cc3s2)cc1 |  |  |  |  |  | Activity [11, 17]: Active; Activity [3, 17]: Active; Activity [1, 17]: Active; Activity [4, 17]: inactive; Activity [5, 17]: Active; Activity [2, 17]: Active |
| CC(C)(C)OC(=O)c1nn(-c2ccc(OCCF)cc2)c(=O)c2c(N)scc12 | inactive | inactive |  |  |  |  |
| CC(C)NC(=O)c1nn(-c2ccc(OCCC[18F])cc2)c(=O)c2c(N)scc12 |  |  |  |  |  | Ratio (Brain [12]): 2.8; Drug uptake (Brain [13]): 1.51%; Drug uptake (Brain [14]): 3.46%; Drug uptake (Brain [15]): 5.77%; Drug uptake (Brain [16]): 9.84% |
| CC(C)NC(=O)c1nn(-c2ccc(OCCF)cc2)c(=O)c2c(NC(=O)OC(C)(C)C)scc12 | inactive | inactive |  |  |  |  |
| CC(C)NC(=O)c1nn(-c2ccc(OCCCF)cc2)c(=O)c2c(N)scc12 | inactive | inactive |  |  |  |  |
| CC(C)NC(=O)c1nn(-c2ccc(F)cc2)c(=O)c2c(N)scc12 | Active | Active | inactive | inactive | inactive | Activity [11]: inactive |
| CC(=C(C#N)C#N)c1ccc2cc(N(C)CCF)ccc2c1 | Active | Active | Active | Active | Active | Activity [11]: Active |
| CC(C)NC(=O)c1nn(-c2ccc(OCC[18F])cc2)c(=O)c2c(N)scc12 |  |  |  |  |  | Ratio (Brain [12]): 2.3; Drug uptake (Brain [13]): 2.35%; Drug uptake (Brain [14]): 2.83%; Drug uptake (Brain [15]): 3.26%; Drug uptake (Brain [16]): 6.5% |
